Assay results from patent publication US20080234183A1, “Cell Penetrating Peptides” (priority 2002, published 2008).

How the values were obtained:
Gi = molecular target: T1, Gi (Bos taurus, UniProt P63097); assay: GTPase activity of Sf9 membranes overexpressing G-proteins; type: biochemical, bovine; conditions: 100 μM
T1 construct: made in house; host or cells: Sf9 insect cells (baculovirus); membranes used
Text: (§1) Baculovirus transfer vectors harboring the genes for Gsα, Giα1 and β1γ2 were kindly provided by Dr. Tatsuya Haga (University of Tokyo, Tokyo, Japan). The cDNA for bovine Gsα (21) in pVL1392, bovine Giα1 (22) In pVL1392 and bovine β1γ2 (23) in pVL1393 were cotransfected with linearized baculovirus DNA (Pharmingen, San Diego, Calif., USA), and the resulted virus stocks were subjected to one round of plaque purification before generation of high-titer virus stocks. In the expression procedure, Sf9 cells at density of 2 million cells/ml in suspension culture were Infected with a ratio 2:1 of a versus βγ. Cells were harvested 48 h post-infection, washed in PBS and stored at −70° C. until membrane preparation.
(§2) Frozen pieces of blood vessels were mechanically pulverized. […] Until used, they were kept frozen in the concentration of 1-2 mg protein/ml as determined by the method of Lowry (Lowry, O. H., Rosenbrough, N.Y., Farr, A. L. & Randall, R. J. J. Biol. Chem. 193, 265-275 (1951)). […]
(§3) Incubation medium was standard TE-buffer, pH 7.5. […] Blank values were determined by the replacement of membrane solution with assay buffer. […] The radioactivity of the yielding radioactive phosphate was determined in Packard 3255 liquid scintillation counter.

Gs = molecular target: T2, Gs (Bos taurus, UniProt P04896); assay: as above; type: biochemical, bovine; conditions: 100 μM
T2 construct: made in house; host or cells: Sf9 insect cells (baculovirus); membranes used
T2 sequence (P04896 whole entry): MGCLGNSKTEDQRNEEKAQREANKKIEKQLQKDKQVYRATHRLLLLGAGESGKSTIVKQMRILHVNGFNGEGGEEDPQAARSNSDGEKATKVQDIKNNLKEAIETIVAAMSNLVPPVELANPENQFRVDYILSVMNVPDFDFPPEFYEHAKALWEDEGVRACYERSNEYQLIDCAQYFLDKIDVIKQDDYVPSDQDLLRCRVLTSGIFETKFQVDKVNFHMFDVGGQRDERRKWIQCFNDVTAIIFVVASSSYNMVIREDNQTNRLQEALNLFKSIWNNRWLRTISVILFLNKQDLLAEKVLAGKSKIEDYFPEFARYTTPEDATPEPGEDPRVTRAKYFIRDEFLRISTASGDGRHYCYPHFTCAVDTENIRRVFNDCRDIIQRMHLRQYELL
Text: as §1, §2, §3

human umbilical artery = assay: Blood vessel contraction measurement
Experimental: (§4) Dissected porcine hearts (260-390 g) were transported from local slaughterhouse to the laboratory in ice-cold Krebs-Henseleit solution (119 mM NaCl, 23.8 mM NaHCO3, 3 mM KCl, 1.14 mM NaH2PO4, 1.63 mM CaCl2, and 16.5 mM glucose). Left anterior descending coronary artery and great cardiac vein were isolated. Part of each blood vessel was used immediately after Isolation for contraction assays while part of it was kept frozen in liquid nitrogen for the membrane preparation. In some experiments blood vessels in which endothelium was mechanically removed were used. The same procedure was used also for the preparation of human umbilical blood vessels; umbilical cords were obtained from Obstetric Clinic of Ljubljana Clinical Center, Slovenia.
(§5) The measurements were performed as already described (20). Rings (5 mm wide) of blood vessels were cut and mounted into 10 ml tissue chamber filled with Krebs-Henseleit solution (37° C.; pH=7.4) which was oxygenated with the mixture of ^95% O2 and 5% CO2. Initial tension of 50 mN was applied and after equilibration 30 mM KCl was added to obtain stable Isometric contraction. The presence of endothelium was verified with substance P. After washing out of KCl and substance P and after the equilibration of the system was restored, test peptide was added into the tissue chamber and blood vessel contraction was recorded.

[1] = tested on: porcine left anterior descending coronary artery; assay: Blood vessel contraction measurement
Experimental: as §4, §5

great cardiac vein = assay: Blood vessel contraction measurement; design: species or system porcine
Experimental: as §4, §5

[2] = tested on: G-proteins from blood vessel membranes; assay: Rate of GTPγS binding to blood vessel membranes; type: biochemical; conditions: membranes from porcine left anterior descending coronary artery
Experimental: Frozen pieces of blood vessels were mechanically pulverized. Subsequently membranes were obtained according to the protocol of McKenzie (McKenzie, F. R. Signal Transduction (Milliqan, E., Ed.), Oxford University Press, Oxford, N.Y., Tokyo. (1992)) with minor modifications. Until used, they were kept frozen in the concentration of 1-2 mg protein/ml as determined by the method of Lowry (Lowry, O. H., Rosenbrough, N.Y., Farr, A. L. & Randall, R. J. J. Biol. Chem. 193, 265-275 (1951)). The same procedure (with the exception of pulverization of tissue) was used also for the preparation of membranes from Sf9 cells which overexpressed the G-proteins of different types; protein concentrations of these membrane preparations were between 0.2 and 0.4 mg/ml.
The binding to G-proteins from blood vessel membranes was followed as described by McKenzie (McKenzie, F. R. Signal Transduction (Milligan, E., Ed.), Oxford University Press, Oxford, N.Y., Tokyo. (1992)). Briefly, the membranes (final protein concentration in the assay mixture was 0.05 mg/ml) were incubated for 3 min in the absence and presence of peptides in different concentrations with 0.5 nM [^35S]GTPγS at 13° C. […] The remaining radioactivity contained in the filters was determined in the LKB 1214 Rackbeta liquid scintillation counter. Blank values were determined by replacing the membrane preparations with buffer.

G11 = molecular target: T3, G11 (Homo sapiens, UniProt P29992); assay: GTPase activity of Sf9 membranes overexpressing G-proteins; type: biochemical; conditions: 100 μM
T3 construct: made in house; host or cells: Sf9 insect cells (baculovirus); membranes used
T3 sequence (P29992 1-359): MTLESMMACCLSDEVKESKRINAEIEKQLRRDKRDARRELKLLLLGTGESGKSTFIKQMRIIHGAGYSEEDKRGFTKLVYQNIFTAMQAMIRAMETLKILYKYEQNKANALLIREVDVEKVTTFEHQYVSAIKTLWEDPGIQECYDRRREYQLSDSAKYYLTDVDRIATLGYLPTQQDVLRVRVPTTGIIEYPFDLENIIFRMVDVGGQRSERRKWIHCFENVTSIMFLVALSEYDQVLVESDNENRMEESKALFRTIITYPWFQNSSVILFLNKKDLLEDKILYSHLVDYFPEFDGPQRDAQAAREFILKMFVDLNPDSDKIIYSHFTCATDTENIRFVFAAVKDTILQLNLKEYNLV

Go = molecular target: T4, Go (Homo sapiens, UniProt P09471); assay: as above; type: biochemical; conditions: 100 μM
T4 construct: made in house; host or cells: Sf9 insect cells (baculovirus); membranes used
T4 sequence (P09471 whole entry): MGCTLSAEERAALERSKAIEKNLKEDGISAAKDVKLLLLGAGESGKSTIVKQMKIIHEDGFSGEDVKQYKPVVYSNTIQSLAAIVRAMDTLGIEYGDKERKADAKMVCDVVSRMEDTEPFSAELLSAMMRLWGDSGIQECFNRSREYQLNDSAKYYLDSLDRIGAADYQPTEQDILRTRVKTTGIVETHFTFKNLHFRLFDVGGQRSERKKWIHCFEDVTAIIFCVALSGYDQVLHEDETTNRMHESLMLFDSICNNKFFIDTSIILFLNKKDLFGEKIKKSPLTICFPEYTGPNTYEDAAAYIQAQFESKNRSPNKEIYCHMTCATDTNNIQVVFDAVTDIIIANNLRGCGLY

[3] = tested on: N2A mouse neuroblastoma cells; assay: Cellular internalisation assay of fluorescein-labelled APP and PS peptides; type: cell-based; conditions: 10 μM, 37°
Experimental: Mouse neuroblastoma cells, N2A, were cultivated in Dulbecco's minimal essential medium with Glutamax-I, supplemented with 10% (v/v) fetal bovine serum, penicillin (100 U/ml) and streptomycin (100 μg/ml).
The cells used for Internalisation were seeded out on round glass coverslips in 24well plates. One day post seeding, the cells were semi confluent, and the medium was changed to serum-free medium. The fluorescein-labelled peptides were added, with a final concentration of 10 μM. After 60 min of incubation at 37°, the cells were washed 3 times with 1 ml of Hepes-Krebbs-Ringer-(HKR) buffer and fixed with 3% paraformaldehyde solution in phosphate-buffered saline solution (PBS) for 10 minutes. The cells were then washed 3 times with 1 ml of HKR-buffer, and the coverslips were mounted and sealed for microscopy studies.
The cell type used for the internalisation assays with the fluorescein'tagged peptides was N2A mouse neuroblastoma cells. This cell-line is commonly used in association with Alzheimer's disease studies, and serves as a good model cell-line for these internalisation assays where peptides derived from proteins involved in Alzheimer's disease were examined. These Internalisation assays were performed at 37° C., therefore the internalisation by endocytosis cannot be excluded.

[4] = tested on: N2A mouse neuroblastoma cells; assay: as above; type: cell-based
Porcine coronary artery = assay: Effect of M630 on porcine coronary artery
Experimental: CGRP receptor loop iC4, sequence 391-405 ([…]) was synthesised and tested at blood vessels as described for the ATLAR loop previously.
Porcine coronary artery was contracted by using KCl. After relaxation of the artery by washing, 50 μM M630 was applied. Contraction started after approximately 10 min and reached maximum in 15 to 20 min after application. […] The effect was reproducible and always very clearly observed. The lag-period of 10 min could be the time needed for the penetration of M630 into the cells.

N2a cells = assay: Cellular internalisation of M630 conjugated to fluorescein; type: cell-based; conditions: 5 μM, 1 h, 37° C.
Experimental: FIG. 42. Cellular internalisation of M630 conjugated to fluorescein in N2a cells, visualised by confocal microscope. The cells were incubated for 1 h at 37° C. with a final peptide concentration of 5 μM.

Bowes and Caco-2 = assay: PenMMP14 uptake in cells expressing MMP14; type: cell-based, human
Text: FIG. 24. Another example of an Inactivated selCPP. PenMMP14 uptake in Bowes (A) and B)) and Caco-2 (C) and D)). The left column is uptake of fluorescein labelled peptide (A) and C)) and the […] with coumarine label (B) and D)).

YTA-2ps = tested on: T5, YTA-2ps
T5 sequence: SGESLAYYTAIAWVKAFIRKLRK

T1 sequence (P63097 2-354 limits assumed): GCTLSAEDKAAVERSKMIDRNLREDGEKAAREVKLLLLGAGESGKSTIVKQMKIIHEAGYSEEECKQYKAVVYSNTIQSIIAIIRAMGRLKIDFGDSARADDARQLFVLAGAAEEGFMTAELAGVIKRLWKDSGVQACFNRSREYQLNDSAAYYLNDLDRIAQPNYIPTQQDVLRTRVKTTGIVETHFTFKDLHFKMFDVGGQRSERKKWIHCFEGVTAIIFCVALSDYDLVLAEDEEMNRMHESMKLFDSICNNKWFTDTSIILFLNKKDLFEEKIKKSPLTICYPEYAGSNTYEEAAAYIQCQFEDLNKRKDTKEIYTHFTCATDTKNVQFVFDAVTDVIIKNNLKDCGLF

For FLGKKFKKYFLQLLK [Peptide M511], the GTPase activity (Gi) was “small but significant activation”, the GTPase activity (Gs) was “seems not to be affected” and the “blood vessel contraction compared with porcine artery” value (human umbilical artery) was “Virtually Identical effect”. The “termination of contraction by washing” value [1] was “could not be terminated by washing”, the blood vessel contraction ([1]; 16 μM) was “intense and long-lasting contraction” and the “strength of contraction as % of maximal effect of potassium ion” value ([1]; 16 μM, comparable to 30 mM K+) was “approximately 50%”. The “contraction force higher than that induced by 30 mM KCl” value ([1]; 100 mM M511 (so in the source)) was “about 40%”, the “blood vessel contraction compared with porcine artery” value (great cardiac vein) was “Virtually Identical effect” and the “rate of binding of GTPγS” value [2] was “dose-dependently increased”. For the same substance, the GTPase activity (G11) was “moderate inhibition” and the GTPase activity (Go) was “small but significant activation”.

In the case of KGKFQLYLKLKFKFL [Scrambled M511], the blood vessel contraction ([1]; 16 μM) is reported as “did not cause any contraction” and the “rate of binding of GTPγS” value [2] is reported as “not active”.

For KKKQYTSIHHGVVEVD [APP (725-740)], the cellular localisation [3] was “mostly to the cytosol”, the cellular internalisation ([3]; 60 min) was “increased fluorescence compared to the background” and the “internalisation at 4° C.” value [4] was “not internalised”.

VQAILRRNWNQYKIQ [Peptide M630] was tested, and the “effect on the contracted arteries” value (Porcine coronary artery) was “no effect”, the “reversal of contraction by washing” value (Porcine coronary artery; 50 μM) was “Washing did not reverse the contraction” and the “time to start of contraction” value (Porcine coronary artery; 50 μM) was “approximately 10 min”. The cell membrane penetration (N2a cells) was “penetrates cell membranes by a non-endocytotic mechanism”.

In the case of “coum-DEEQERSEN-IRQIKIWFQNRRMKWK*K-amide [SelCPP2]”, the cellular uptake (Bowes and Caco-2) is reported as “taken up in cells expressing MMP14”.

For matrix metallo proteinase-2 (MMP-2), the “cleavage of the peptide by the protease, checked by mass spectrometry” value (YTA-2ps) was “The correct cleavage of YTA-2 by MMP2 has also be confirmed by mass spectrometry (data not shown)”.
